A short description of data set [1]: Maximum solubility in yeast culture. The data set is classed as physicochemical. The following applies: 28 °C; in YPD yeast culture; read-out: maximum concentration (maximum solubility). On the procedure:
(§1) From o/n pre-culture in selective medium (SC-URA, 2% ethanol (v/v)), 50 mL of rich YPD medium (1% Yeast Extract, 0.5% Bacto Peptone, 2% Glucose) were seeded at a DO600 of 0.05/mL. The 50 mL of culture were distributed in a series of ten tubes on the basis of 2 mL of culture/tube, with 4 mL of culture being placed in the last tube. […] From this tube (tube 1), 2 mL of culture were placed into tube 2. Tube 2 contained 4 ml of culture and clofilium tosylate at a concentration of 256 μM. 2 mL of tube 2 were added to tube 3, and so on. Each tube contained the drug at a concentration equal to half that of the previous tube. Two controls were provided—without clofilium tosylate and with DMSO (the volume being the same as that used to dilute the clofilium tosylate). The cultures were incubated at 28° C. with stirring for 24 hours, and the optical density (DO600) was measured.

For data set [2], the system named is mip1^G651S and mip1^A692T yeast mutants, Δsml1. The data set is described as follows: Small colony frequency in mip1 strains with or without SML1 deletion (mtDNA stability). The data set is classed as cell-based, Saccharomyces cerevisiae. The following applies: 32 μM. As for the experimental part:
Deletion of the SML1 gene encoding the inhibitor of RNRI (ribonucleotide diphosphate reductase, enzyme limiting the synthesis pathway of dNTPs) is known to be a genetic suppressor of the instability of the mtDNA caused by mutations in the MIP1 gene (Wang P J, Chabes A, Casagrande R, Tian X C, Thelander L and Huffaker T C. (1997) Rnr4p a novel ribonucleotide reductase small-subunit protein. Mol Cell Biol, 17, 6114-6121).
The frequency of the small colonies was determined for the mip1^G651S and mip1^A692T strains, whether deleted or not from the SML1 gene and in the presence of 32 μM clofilium tosylate or DMSO.
From pre-cultures in selective medium (SC-TRP, 2% ethanol (v/v)) of mutated mip1 strains, 2.10^5 cells/mL were seeded in 2 mL of rich YPD medium in the presence of 32 μM clofilium tosylate or DMSO, then incubated at 28° C. for 24 hours. The cells were then diluted to have about 200 to 250 cells per dish and were spread on differential synthetic medium (SC-TRP, 0.3% glucose, 2% ethanol). The number of small colonies was calculated after 5 days of incubation at 28° C.

For data set [3], the system named is homozygous TB2143 nematodes (polg-1(ok1548Δ/Δ)). The data set is described as follows: Gonad and/or intestinal extrusion (premature death) of homozygous nematodes. Format: in vivo, Caenorhabditis elegans. The following applies: 50 μM, until 7th day of adulthood. On the procedure: Ten homozygous TB2143 larvae (polg-1(ok1548Δ/Δ)) at stage L4 were deposited on each NGM dish containing either DMSO or 50 μM clofilium tosylate (three dishes for each treatment group) and incubated at 20° C. Their survival was monitored until the 7th day of adulthood. The number of dead animals, not responding to any stimulation, and having intestinal and/or gonad extrusion was counted. The few animals that died of dehydration at the edge of the petri dishes were excluded from the analysis.

Data set [4] deals with mutated mip1 yeast strains. The data set is described as follows: Production of small colonies in mutated mip1 yeast strains. Format: cell-based, Saccharomyces cerevisiae. On the procedure: The rate of small cells in a population represents the cells not breathing due to rearrangements of the mtDNA and/or having lost their mtDNA.
From a pre-culture in selective medium (SC-TRP, 2% ethanol (v/v)) of the mutated mip1 strain, 2.10^5 cells/mL were seeded in 2 mL of rich YPD medium (1% Yeast Extract, 0.5% Bacto Peptone, 2% Glucose) in the presence of 32 μM clofilium tosylate or DMSO. The cells were then incubated at 28° C. for two cycles of 24 hours. The cells were then diluted to have about 200 to 250 cells per dish and spread on differential synthetic medium (SC-TRP, 0.3% glucose, 2% ethanol). The number of small colonies was calculated after 6 days of incubation at 28° C. (Baruffini, E., Lodi, T., Dallabona, C., Puglisi, A., Zeviani, M. and Ferrero, I. (2006) Genetic and Chemical rescue of the Saccharomyces cerevisiae phenotype induced by mitochondrial DNA polymerase mutations associated with progressive external ophthalmoplegia in humans. Hum. Mol. Genet., 15, 2846-2855).
The effect of the clofilium tosylate on the production of small colonies was measured in 8 recessive mip1 mutants:
an in 3 dominant mip1 mutants: • Y757C (mutated domain: polymerase) • K749R (mutated domain: polymerase) • E698G (mutated domain: polymerase)

Data set [5] has as its system Saccharomyces cerevisiae mip1^G651S yeast strain. The data set is described as follows: Inhibition of growth (MIC) / maximum tolerated concentration in yeast culture (DO600 after 24 h). The data set is classed as cell-based. The following applies: 1-512 μM tested. As for the experimental part:
as §1

Data set [6] deals with fibroblasts from a patient with a mutation on each allele of the POLG gene. The data set is described as follows: Amount of mtDNA (qPCR) in patient fibroblasts, cell growth conditions. Format: cell-based, human. The following applies: 2.5 μM, DMEM high glucose, harvested at 100% confluence. As for the experimental part: Skin fibroblasts from the control and from the patient were cultured to 100% confluence in a complete Dulbecco's Modified Eagle Medium (DMEM) high glucose medium (4.5 g/L of D-glucose, 110 mg/L sodium pyruvate, 10% foetal bovine serum, 1% penicillin/streptomycin from the stock solution containing 10,000 I.U. penicillin and 10,000 μg/mL streptomycin) at 37° C. under 5% CO2. At confluence, the cultures were trypsinised and placed back in culture at 30% confluence in a complete DMEM high glucose medium supplemented with either 0.1% DMSO or with 2.5 μM clofilium tosylate. They were incubated at 37° C. under 5% CO2 and harvested at 100% confluence. The total fibroblast DNAs were extracted by the phenol-chloroform method, and the mtDNA and nuclear DNA were quantified by qPCR as described in Sarzi et al., 2007 (Sarzi, E., Bourdon, A., Chrétien, D., Zarhrate, M., Corcos, J., Slama, A., Cormier-Daire, V., De Lonlay, P., Munnich, A. and Rötig, A. (2007) Mitochondrial DNA Depletion is a Prevalent Cause of Multiple Respiratory Chain Deficiency in Childhood. J Pediatr, 105, 531-534).

For the molecule `CCCCCCC[N+](CC)(CC)CCCCc1ccc(Cl)cc1.Cc1ccc(S(=O)(=O)[O-])cc1` [clofilium tosylate], the solubility in data set [1] was 512 µM. Besides, the “stability of the mtDNA, clofilium tosylate together with availability of dNTPs (SML1 deletion)” value in data set [2] is “additive effect”. Also, the “premature death by gonad and/or intestinal extrusion” value in data set [3] is “reduced”. Besides, the “production of small colonies of the mutant mip1^G651S yeast strain” value in data set [4] (32 μM vs DMSO) is listed as “reduced the production of small colonies”. Besides, the “production of cells not breathing (small colonies) in recessive and dominant mip1 mutants” value in data set [4] (32 μM, irrespective of mutated MIP1 domain, except mutations producing more than 90% of small colonies) is given as “reduced the production of cells not breathing”. In addition, the “concentration chosen for the study in S. cerevisiae (determination of the maximum concentration tolerated)” value in data set [5] came to 32 µM. The “amount of mtDNA, cell growth conditions” value in data set [6] is given as “slightly increased”.

The values above are taken from patent publication US10639287B2, “Compounds for the treatment of mitochondrial diseases” (UNIVERSITE PARIS-SUD, priority 2014, dated 2020).
